ChEMBL document CHEMBL4507264, “Data for DCP probe BAY-7598” (2021)

Columns and labels:
Homo sapiens = species: Homo sapiens; assay: Inhibition of Nicotinic Acetylcholine at compound concentration of 10.0 uM in the Eurofins-Panlabs radioligand binding assay (Eurofins_assay_258590); format: protein-complex assay; conditions: Compound concentration 10.0 uM
Rattus norvegicus [1] = species: Rattus norvegicus; assay: Inhibition of Imidazoline I2, Central at 10 µM in the Eurofins-Panlabs radioligand binding assay (Eurofins_assay_241000); set-up: ligand concentration 2 nM; conditions: Compound concentration 10.0 uM
[2] = target: Delta-type opioid receptor (Homo sapiens) (UniProt P41143); conditions: Compound concentration 10.0 uM
Delta-type opioid receptor (Homo sapiens), sequence (P41143 whole entry): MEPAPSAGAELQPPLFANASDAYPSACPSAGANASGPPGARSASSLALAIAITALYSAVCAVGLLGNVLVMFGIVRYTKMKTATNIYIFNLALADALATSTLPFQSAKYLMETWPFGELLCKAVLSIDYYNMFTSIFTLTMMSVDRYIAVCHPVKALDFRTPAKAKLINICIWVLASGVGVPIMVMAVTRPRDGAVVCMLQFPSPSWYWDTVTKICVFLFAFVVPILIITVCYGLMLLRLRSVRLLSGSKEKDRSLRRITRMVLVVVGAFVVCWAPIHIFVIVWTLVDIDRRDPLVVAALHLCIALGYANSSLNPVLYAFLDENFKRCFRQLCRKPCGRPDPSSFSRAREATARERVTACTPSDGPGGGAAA

[3] = target: Adenosine receptor A3 (Homo sapiens) (UniProt P0DMS8); conditions: Compound concentration 10.0 uM
Adenosine receptor A3 (Homo sapiens), sequence (P0DMS8 whole entry): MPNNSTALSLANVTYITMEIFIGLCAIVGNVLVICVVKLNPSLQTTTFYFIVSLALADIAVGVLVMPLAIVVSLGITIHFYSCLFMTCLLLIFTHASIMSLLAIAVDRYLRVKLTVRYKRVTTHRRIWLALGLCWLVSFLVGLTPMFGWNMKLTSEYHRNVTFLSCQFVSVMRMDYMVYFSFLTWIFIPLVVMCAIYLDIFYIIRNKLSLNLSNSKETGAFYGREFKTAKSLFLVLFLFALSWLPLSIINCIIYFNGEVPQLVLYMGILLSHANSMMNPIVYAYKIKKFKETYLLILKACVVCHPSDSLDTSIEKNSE

[4] = target: Prostaglandin E2 receptor EP4 subtype (Homo sapiens) (UniProt P35408); assay: Inhibition of Prostanoid EP4 at 10 µM in the Eurofins-Panlabs radioligand binding assay (Eurofins_assay_268420); set-up: ligand concentration 1 nM; conditions: Compound concentration 10.0 uM
Prostaglandin E2 receptor EP4 subtype (Homo sapiens), sequence (P35408 whole entry): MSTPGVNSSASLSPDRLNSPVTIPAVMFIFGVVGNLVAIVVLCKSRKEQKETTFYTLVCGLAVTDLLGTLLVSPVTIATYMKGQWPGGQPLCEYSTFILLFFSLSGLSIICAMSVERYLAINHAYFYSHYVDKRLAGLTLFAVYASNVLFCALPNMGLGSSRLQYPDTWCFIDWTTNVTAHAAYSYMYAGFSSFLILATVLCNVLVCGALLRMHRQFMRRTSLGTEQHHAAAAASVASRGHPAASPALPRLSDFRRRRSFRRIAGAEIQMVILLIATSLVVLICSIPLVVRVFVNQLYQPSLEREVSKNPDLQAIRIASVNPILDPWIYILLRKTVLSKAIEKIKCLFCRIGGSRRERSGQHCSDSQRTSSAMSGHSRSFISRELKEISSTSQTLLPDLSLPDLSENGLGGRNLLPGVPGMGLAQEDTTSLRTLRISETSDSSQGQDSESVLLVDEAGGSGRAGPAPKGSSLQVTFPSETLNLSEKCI

[5] = target: Kappa-type opioid receptor (Homo sapiens) (UniProt P41145); conditions: Compound concentration 10.0 uM
[6] = target: Beta-1 adrenergic receptor (Homo sapiens) (UniProt P08588); conditions: Compound concentration 10.0 uM
Beta-1 adrenergic receptor (Homo sapiens), sequence (P08588 whole entry, looked up): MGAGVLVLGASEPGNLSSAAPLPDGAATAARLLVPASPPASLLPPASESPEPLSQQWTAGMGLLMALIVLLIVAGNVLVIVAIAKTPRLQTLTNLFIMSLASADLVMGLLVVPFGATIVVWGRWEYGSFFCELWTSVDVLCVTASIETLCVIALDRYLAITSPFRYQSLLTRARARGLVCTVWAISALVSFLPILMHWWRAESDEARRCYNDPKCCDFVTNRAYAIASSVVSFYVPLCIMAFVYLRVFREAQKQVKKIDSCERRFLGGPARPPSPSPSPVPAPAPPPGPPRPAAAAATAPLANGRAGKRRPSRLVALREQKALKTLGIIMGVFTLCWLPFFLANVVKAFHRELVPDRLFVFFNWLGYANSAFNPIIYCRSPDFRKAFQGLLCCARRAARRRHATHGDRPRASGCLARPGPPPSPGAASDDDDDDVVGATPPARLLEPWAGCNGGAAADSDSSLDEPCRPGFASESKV

[7] = target: Adenosine receptor A1 (Homo sapiens) (UniProt P30542); conditions: Compound concentration 10.0 uM
[8] = target: Mu-type opioid receptor (Homo sapiens) (UniProt P35372); conditions: Compound concentration 10.0 uM
Rattus norvegicus [9] = species: Rattus norvegicus; assay: Inhibition of Glutamate, NMDA, Phencyclidine at 10 µM in the Eurofins-Panlabs radioligand binding assay (Eurofins_assay_233000); format: protein-complex assay; conditions: Compound concentration 10.0 uM
[10] = target: Estrogen receptor (Homo sapiens) (UniProt P03372); conditions: Compound concentration 10.0 uM
Estrogen receptor (Homo sapiens), sequence (P03372 whole entry): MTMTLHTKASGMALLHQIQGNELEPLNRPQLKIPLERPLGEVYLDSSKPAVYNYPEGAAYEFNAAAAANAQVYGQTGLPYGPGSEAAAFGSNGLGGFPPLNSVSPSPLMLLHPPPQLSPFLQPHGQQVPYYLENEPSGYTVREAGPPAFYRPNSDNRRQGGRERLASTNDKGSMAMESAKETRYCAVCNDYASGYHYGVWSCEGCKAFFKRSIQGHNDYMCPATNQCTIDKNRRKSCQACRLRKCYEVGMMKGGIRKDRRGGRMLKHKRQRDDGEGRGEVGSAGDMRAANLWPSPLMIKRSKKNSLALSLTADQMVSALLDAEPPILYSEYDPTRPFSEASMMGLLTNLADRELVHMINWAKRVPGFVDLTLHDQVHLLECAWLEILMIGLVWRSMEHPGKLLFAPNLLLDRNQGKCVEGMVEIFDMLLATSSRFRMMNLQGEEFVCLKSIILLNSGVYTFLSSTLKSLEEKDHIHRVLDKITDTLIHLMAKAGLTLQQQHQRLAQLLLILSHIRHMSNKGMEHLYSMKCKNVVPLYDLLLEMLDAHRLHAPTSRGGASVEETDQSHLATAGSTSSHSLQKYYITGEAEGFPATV

[11] = target: Gamma-aminobutyric acid type B receptor subunit 1 (Homo sapiens) (UniProt Q9UBS5); assay: Inhibition of GABAB1A at compound concentration of 10.0 uM in the Eurofins-Panlabs radioligand binding assay (Eurofins_assay_228610); set-up: ligand concentration 4 nM; conditions: Compound concentration 10.0 uM
[12] = target: Substance-P receptor (Homo sapiens) (UniProt P25103); assay: Inhibition of Tachykinin NK1 at 10 µM in the Eurofins-Panlabs radioligand binding assay (Eurofins_assay_255520); set-up: ligand concentration 0.8 nM; conditions: Compound concentration 10.0 uM
[13] = target: L-type calcium channel, benzothiazepine site (Cav1.2 alpha-1C) (Homo sapiens, UniProt Q13936); assay: Inhibition of Calcium Channel L-Type, Benzothiazepine at 10 µM in the Eurofins-Panlabs radioligand binding assay (Eurofins_assay_214510); set-up: ligand concentration 2 nM, non-specific ligand with concentration 10 µM Diltiazem, incubation time 3h, incubation temperature 4 °C; conditions: male, Wistar, rat, rat whole brain preparation, probe [3H] Diltiazem; compound concentration 10 uM; target entry is the homologue from another species
[14] = target: B2 bradykinin receptor (Homo sapiens) (UniProt P30411); assay: Bradykinin B2 Eurofins-Panlabs radioligand binding assay; conditions: Compound concentration 10.0 uM
Rattus norvegicus [15] = species: Rattus norvegicus; conditions: Compound concentration 10.0 uM
[16] = target: Glutamate receptor ionotropic, kainate (Rattus norvegicus) (UniProt P22756+Q01812+P42260+P42264+Q63273); assay: Inhibition of Glutamate, Kainate at 10 µM in the Eurofins-Panlabs radioligand binding assay (Eurofins_assay_232700); conditions: Compound concentration 10.0 uM
[17] = target: B1 bradykinin receptor (Homo sapiens) (UniProt P46663); assay: Inhibition of Bradykinin B1 at 10 µM in the Eurofins-Panlabs radioligand binding assay (Eurofins_assay_212510); conditions: Compound concentration 10.0 uM
B1 bradykinin receptor (Homo sapiens), sequence (P46663 whole entry): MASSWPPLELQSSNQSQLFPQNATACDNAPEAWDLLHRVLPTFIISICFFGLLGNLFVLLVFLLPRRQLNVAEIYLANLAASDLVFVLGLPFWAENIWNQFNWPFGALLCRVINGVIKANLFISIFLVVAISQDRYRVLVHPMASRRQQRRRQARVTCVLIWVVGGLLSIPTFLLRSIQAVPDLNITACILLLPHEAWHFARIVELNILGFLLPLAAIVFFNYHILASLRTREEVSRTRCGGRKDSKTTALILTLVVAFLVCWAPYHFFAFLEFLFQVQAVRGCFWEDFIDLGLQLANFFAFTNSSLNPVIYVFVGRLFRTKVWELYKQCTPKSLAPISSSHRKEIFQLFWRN

[18] = target: Glucocorticoid receptor (Homo sapiens) (UniProt P04150); conditions: Compound concentration 10.0 uM
Glucocorticoid receptor (Homo sapiens), sequence (P04150 whole entry): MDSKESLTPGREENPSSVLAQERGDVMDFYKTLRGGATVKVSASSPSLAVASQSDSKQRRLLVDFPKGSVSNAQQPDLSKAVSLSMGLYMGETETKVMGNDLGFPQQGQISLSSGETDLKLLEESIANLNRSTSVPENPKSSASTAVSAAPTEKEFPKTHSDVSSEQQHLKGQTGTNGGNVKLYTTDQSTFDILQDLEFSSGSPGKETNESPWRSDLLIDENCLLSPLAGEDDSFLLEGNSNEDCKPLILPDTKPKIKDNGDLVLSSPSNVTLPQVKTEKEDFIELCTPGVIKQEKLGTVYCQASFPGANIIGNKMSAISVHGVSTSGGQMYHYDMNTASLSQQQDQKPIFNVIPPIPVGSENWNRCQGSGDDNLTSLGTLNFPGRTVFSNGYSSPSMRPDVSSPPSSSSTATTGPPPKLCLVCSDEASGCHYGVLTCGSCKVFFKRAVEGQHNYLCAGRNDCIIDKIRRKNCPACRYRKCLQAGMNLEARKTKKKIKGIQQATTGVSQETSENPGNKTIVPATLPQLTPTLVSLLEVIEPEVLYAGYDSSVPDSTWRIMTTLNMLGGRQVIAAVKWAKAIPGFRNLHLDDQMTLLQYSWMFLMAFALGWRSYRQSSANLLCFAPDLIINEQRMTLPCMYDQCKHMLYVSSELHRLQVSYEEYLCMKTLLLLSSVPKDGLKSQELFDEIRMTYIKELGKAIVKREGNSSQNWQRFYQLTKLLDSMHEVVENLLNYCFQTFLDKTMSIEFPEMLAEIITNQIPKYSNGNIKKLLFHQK

[19] = target: Cannabinoid receptor 1 (Homo sapiens) (UniProt P21554); conditions: Compound concentration 10.0 uM
[20] = target: T1, 5-hydroxytryptamine receptor 1A (Homo sapiens) (UniProt P08908); conditions: Compound concentration 10.0 uM
T1 sequence (whole entry): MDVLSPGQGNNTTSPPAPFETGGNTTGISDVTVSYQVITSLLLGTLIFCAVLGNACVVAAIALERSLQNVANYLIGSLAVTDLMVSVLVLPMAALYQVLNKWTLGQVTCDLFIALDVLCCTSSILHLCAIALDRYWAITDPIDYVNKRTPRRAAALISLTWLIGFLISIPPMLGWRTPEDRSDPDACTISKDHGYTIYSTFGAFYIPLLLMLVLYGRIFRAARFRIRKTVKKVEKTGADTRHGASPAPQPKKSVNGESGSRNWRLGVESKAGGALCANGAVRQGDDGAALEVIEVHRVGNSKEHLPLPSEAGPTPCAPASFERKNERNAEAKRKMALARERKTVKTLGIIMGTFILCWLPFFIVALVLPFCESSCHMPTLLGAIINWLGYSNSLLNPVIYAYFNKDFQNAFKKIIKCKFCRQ

[21] = target: Histamine H1 receptor (Homo sapiens) (UniProt P35367); conditions: Compound concentration 10.0 uM
Histamine H1 receptor (Homo sapiens), sequence (P35367 whole entry): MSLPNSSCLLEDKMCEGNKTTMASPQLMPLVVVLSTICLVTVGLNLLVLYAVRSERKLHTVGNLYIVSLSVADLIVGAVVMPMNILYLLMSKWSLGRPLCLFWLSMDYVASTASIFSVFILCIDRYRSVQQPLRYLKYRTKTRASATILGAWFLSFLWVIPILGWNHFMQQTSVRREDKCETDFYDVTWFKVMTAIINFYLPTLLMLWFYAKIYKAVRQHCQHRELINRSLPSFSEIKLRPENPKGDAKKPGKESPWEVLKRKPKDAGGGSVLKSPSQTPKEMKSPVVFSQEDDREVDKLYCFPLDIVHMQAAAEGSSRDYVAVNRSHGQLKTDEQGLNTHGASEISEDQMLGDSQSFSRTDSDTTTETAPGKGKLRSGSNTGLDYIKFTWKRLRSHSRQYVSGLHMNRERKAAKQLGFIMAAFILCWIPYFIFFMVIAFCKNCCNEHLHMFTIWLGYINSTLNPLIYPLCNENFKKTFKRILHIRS

[22] = target: ATP-sensitive inward rectifier potassium channel 11 (Cricetulus griseus) (UniProt A0A3L7HHE1); assay: Inhibition of Potassium Channel [KATP] at 10 µM in the Eurofins-Panlabs radioligand binding assay (Eurofins_assay_265600); conditions: Cricetinae; Compound concentration 10.0 uM
[23] = target: Endothelin-1 receptor (Homo sapiens) (UniProt P25101); conditions: Compound concentration 10.0 uM
Endothelin-1 receptor (Homo sapiens), sequence (P25101 whole entry): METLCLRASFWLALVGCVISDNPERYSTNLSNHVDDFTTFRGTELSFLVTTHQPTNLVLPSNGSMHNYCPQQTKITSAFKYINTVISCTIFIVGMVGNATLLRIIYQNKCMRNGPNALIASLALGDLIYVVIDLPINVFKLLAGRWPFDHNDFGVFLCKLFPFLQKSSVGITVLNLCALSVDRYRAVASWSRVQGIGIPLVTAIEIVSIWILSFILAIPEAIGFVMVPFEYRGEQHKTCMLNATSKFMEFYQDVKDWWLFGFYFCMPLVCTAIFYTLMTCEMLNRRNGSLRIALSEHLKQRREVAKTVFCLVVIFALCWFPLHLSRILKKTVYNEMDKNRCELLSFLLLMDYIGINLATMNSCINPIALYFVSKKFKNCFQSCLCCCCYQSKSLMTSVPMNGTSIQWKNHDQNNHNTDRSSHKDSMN

[24] = target: Muscarinic acetylcholine receptor M3 (Homo sapiens) (UniProt P20309); conditions: Compound concentration 10.0 uM
[25] = target: D(3) dopamine receptor (Homo sapiens) (UniProt P35462); conditions: Compound concentration 10.0 uM
[26] = target: Acetylcholine receptor subunit alpha (Homo sapiens) (UniProt P02708); assay: Inhibition of Nicotinic Acetylcholine D1, Bungarotoxin at 10 µM in the Eurofins-Panlabs radioligand binding assay (Eurofins_assay_258700); conditions: Compound concentration 10.0 uM
[27] = target: D(2) dopamine receptor (Homo sapiens) (UniProt P14416); conditions: Compound concentration 10.0 uM
D(2) dopamine receptor (Homo sapiens), sequence (P14416 whole entry): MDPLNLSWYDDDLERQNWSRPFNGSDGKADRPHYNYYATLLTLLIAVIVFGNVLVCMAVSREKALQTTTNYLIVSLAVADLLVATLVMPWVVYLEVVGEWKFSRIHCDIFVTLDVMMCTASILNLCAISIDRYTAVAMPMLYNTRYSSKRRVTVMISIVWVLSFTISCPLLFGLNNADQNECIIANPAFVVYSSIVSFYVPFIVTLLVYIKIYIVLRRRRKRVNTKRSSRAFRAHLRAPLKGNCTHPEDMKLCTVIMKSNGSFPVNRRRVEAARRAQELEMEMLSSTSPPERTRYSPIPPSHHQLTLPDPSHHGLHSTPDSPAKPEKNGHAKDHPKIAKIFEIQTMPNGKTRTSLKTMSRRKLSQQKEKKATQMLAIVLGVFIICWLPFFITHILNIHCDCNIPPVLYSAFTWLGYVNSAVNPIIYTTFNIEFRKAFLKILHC

[28] = target: T2, D(4) dopamine receptor (Homo sapiens) (UniProt P21917); assay: Inhibition of Dopamine D4.2 at 10 µM in the Eurofins-Panlabs radioligand binding assay (Eurofins_assay_219900); set-up: ligand concentration 0.5 nM; conditions: Compound concentration 10.0 uM
T2 sequence (whole entry): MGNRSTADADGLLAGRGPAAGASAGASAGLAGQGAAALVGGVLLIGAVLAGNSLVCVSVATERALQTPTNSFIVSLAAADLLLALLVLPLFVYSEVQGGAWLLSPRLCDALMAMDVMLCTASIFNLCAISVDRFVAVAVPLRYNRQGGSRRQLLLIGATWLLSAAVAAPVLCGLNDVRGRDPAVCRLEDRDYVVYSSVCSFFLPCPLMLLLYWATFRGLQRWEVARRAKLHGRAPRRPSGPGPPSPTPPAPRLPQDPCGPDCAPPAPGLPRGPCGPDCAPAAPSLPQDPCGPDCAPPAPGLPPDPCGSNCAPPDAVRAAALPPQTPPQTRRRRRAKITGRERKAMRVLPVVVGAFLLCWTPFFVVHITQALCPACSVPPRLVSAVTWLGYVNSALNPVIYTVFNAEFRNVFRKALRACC

[29] = target: Sodium-dependent dopamine transporter (Homo sapiens) (UniProt Q01959); conditions: Compound concentration 10.0 uM

O=C(O)[C@H]1[C@H](Cn2nnc3ccccc3c2=O)CC[C@@H]1C(=O)c1ccc(OCCC2CCOCC2)cc1 [BAY-7598]
inhibition (Homo sapiens): -1%
inhibition (Rattus norvegicus [1]): 5%
inhibition [2]: 9%
inhibition [3]: 13%
inhibition [4]: 19%
inhibition [5]: 7%
inhibition [6]: 0%
inhibition [7]: -2%
inhibition [8]: -9.72%
inhibition (Rattus norvegicus [9]): 4%
inhibition [10]: 2%
inhibition [11]: 0%
inhibition [12]: -4%
inhibition at 3 h, 10 µM [13]: -9% (not active)
inhibition [14]: -10%
inhibition (Rattus norvegicus [15]): 1%
inhibition [16]: -4%
inhibition [17]: 6%
inhibition [18]: 12%
inhibition [19]: 17%
inhibition [20]: -9%
inhibition [21]: 1%
inhibition [22]: 9%
inhibition [23]: 7%
inhibition [24]: 2%
inhibition [25]: 12%
inhibition [26]: 0%
inhibition [27]: 2%
inhibition [28]: -2%
inhibition [29]: 0%
